Patent publication US6218393A, “Anthranilic acid derivatives as multi drug resistance modulators” (priority 1997, dated 2001)

What was measured:
[1] = test system: AR 1.0 cells; assay: Drug accumulation assay: daunorubicin accumulation in AR 1.0 cells; format: cell-based; details: Mus musculus, 100% = accumulation with verapamil 100 μM, 1 hr, 37° C.
Summary of the method: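 Daunorubicin accumulation was measured in cells plated 48 h beforehand. These were AR 1.0 cells, an MDR-resistant derivative of mouse EMT6 mammary carcinoma, cultured at 37 °C in 5% CO2 in RPMI 1640 plus 10% foetal calf serum and 2 mM glutamine.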

[2] = test system: AR 1.0 cells; assay: Potentiation of doxorubicin toxicity: proliferation assay (sulphorhodamine B); format: cell-based, mouse
Excerpt: (a) Selected compounds of formula (I) were examined for their ability to potentiate the toxicity of doxorubicin in AR 1.0 cells.

[3] = test system: AR 1.0 cells; assay: Potentiation index with doxorubicin titration; format: cell-based, mouse; details: for Potentiation Index at RMA concentration 300 nM: Table C2, RMA 300 nM; for Potentiation Index at RMA concentration 500 nM: Table C2, RMA 500 nM
Summary of the method: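 Doxorubicin IC50 in AR 1.0 cells (MDR subline of EMT6 mouse mammary carcinoma) determined by sulphorhodamine B after 4-day culture across 0.263 nM-17.24 μM, with and without a fixed dose of test compound; their ratio gives the PI.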

[4] = Mus musculus, 96 h, compound alone, four day proliferation, read-out: Compound Toxicity (IC50)
[5] = with fixed doxorubicin 0.34 μm, four days, 5760 min, read-out: Toxicity with Cytotoxic Agent (IC50)

Row | Structure (SMILES) | IC50 [1] [nM] | IC50 [2, 4] [nM] | IC50 [2, 5] [nM] | Potentiation Index at RMA concentration 300 nM [3] | Potentiation Index at RMA concentration 500 nM [3] | Potentiation Index at RMA concentration 100 nM ([3]; Table C2, RMA 100 nM)
1 | COc1cc2c(cc1OC)CN(CCNC(=O)c1ccccc1NC(=O)c1ccc3ccccc3c1)CC2 [compound 9295, Naphthalene-2-carboxylic acid {2-[2-(6,7-dimethoxy-3,4-dihydro-1H-isoquinolin-2-yl)-ethylcarbamoyl]-phenyl}-amide] | 390 | 40000 | 600 | 16 |  | 
2 | COc1cc2c(cc1OC)CN(CCNC(=O)c1ccccc1NC(=O)c1ccc(C(C)C)cc1)CC2 [compound 9304, 2-(4-Isopropyl-benzoylamino)-N-[2-(6,7-dimethoxy-3,4-dihydro-1H-isoquinolin02-yl)-ethyl]-benzamide] | 1200 | 8000 | 150 |  | 30 | 
3 | COc1cc2c(cc1OC)CN(CCNC(=O)c1ccc(F)cc1NC(=O)c1ccc(C(C)C)cc1)CC2 [compound 9349, 2-(4-Isopropyl-benzoylamino)-N-[2-(6,7-dimethoxy-3,4-dihydro-1H-isoquinolin-2-yl)-ethyl]-4-fluoro-benzamide] | 300 | 5500 | 140 |  | 22 | 
4 | COc1cc2c(cc1OC)CN(CCNC(=O)c1cc(Cl)ccc1NC(=O)c1ccc(C(C)C)cc1)CC2 [compound 9354, 2-(4-Isopropyl-benzoylamino)-N-[2-(6,7-dimethoxy-3,4-dihydro-1H-isoquinolin-2-yl)-ethyl]-5-chioro-benzamide] | 600 | 8000 | 150 |  | 20 | 
5 | COc1cc2c(cc1OC)CN(CCNC(=O)c1cc(Br)ccc1NC(=O)c1ccc(C(C)C)cc1)CC2 [compound 9394, 2-(4-Isopropyl-benzoylamino)-N-[2-(6,7-dimethoxy-3,4-dihydro-1H-isoquinolin-2-yl)-ethyl]-5-bromo-benzamide] | 3400 | 10000 |  |  | 12 | 
6 | COc1cc2c(cc1OC)CN(CCNC(=O)c1c(Cl)cccc1NC(=O)c1ccc(C(C)C)cc1)CC2 [compound 9405, 2-(4-Isopropyl-benzoylamino)-N-[2-(6,7-dimethoxy-3,4-dihydro-1H-isoquinolin-2-yl)-ethyl]-6-chioro-benzamide] | 300 | 22000 | 90 |  | 8.6 | 
7 | COc1cc2c(cc1OC)CN(CCNC(=O)c1ccc([N+](=O)[O-])cc1NC(=O)c1ccc(C(C)C)cc1)CC2 [compound 9420, 2-(4-Isopropyl-benzoylamino)-N-[2-(6,7-dimethoxy-3,4-dihydro-1H-isoquinolin-2-yl)-ethyl]-4-nitro-benzamide] | 1900 | 7000 | 400 |  | 25 | 
8 | COc1cc2c(cc1OC)CN(CCNC(=O)c1cccc(O)c1NC(=O)c1ccc(C(C)C)cc1)CC2 [compound 9424, 2-(4-Isopropyl-benzoylamino)-N-[2-(6,7-dimethoxy-3,4-dihydro-1H-isoquinolin-2-yl)-ethyl]-3-hydroxy-benzamide] | 2500 | 39000 | 2600 |  | 37 | 
9 | COc1cc2c(cc1OC)CN(CCc1ccc(NC(=O)c3ccccc3NC(=O)c3ccc(C(C)C)cc3)cc1)CC2 [compound 9447, 2-(4-Isopropyl-benzoylamino)-N-{4-[2-(6,7-dimethoxy-3,4-dihydro-1H-isoquinolin-2-yl)-ethyl]-phenyl}-benzamide] | 700 | 6800 | 65 | 40 | 340 | 
10 | COc1cc2c(cc1OC)CN(CCc1ccc(NC(=O)c3ccccc3NC(=O)c3ccc(OC(C)=O)cc3)cc1)CC2 [compound 9548, Acetic acid 4-(2-{4-[2-(6,7-dimethoxy-3,4-dihydro-1H-isoquinolin-2-yl)-ethyl]-phenylcarbamoyl}-phenylcarbamoyl)-phenyl ester] | 4900 | 1800 | 1000 |  |  | 

The next lines start with results.

Row | IC50 [1] [nM] | Structure (SMILES) | IC50 [2, 4] [nM] | IC50 [2, 5] [nM] | Potentiation Index at RMA concentration 300 nM [3] | Potentiation Index at RMA concentration 500 nM [3] | Potentiation Index at RMA concentration 100 nM ([3]; Table C2, RMA 100 nM)
11 | 400 | CCCc1ccc(C(=O)Nc2ccccc2C(=O)NCCN2CCc3cc(OC)c(OC)cc3C2)cc1 [compound 9297, 2-(4-Propyl-benzoylamino)-N-[2-(6,7-dimethoxy-3,4-dihydro-1H-isoquinolin-2-yl)-ethyl]-benzamide] | 18000 | 330 | 16 |  | 
12 | 1300 | COc1cc2c(cc1OC)CN(CCNC(=O)c1ccccc1NC(=O)c1ccc(C3CCCCC3)cc1)CC2 [compound 9331, 2-(4-Cyclohexyl-benzoylamino)-N-[2-(6,7-dimethoxy-3,4-dihydro-1H-isoquinolin-2-yl)-ethyl]-benzamide] | 7000 | 40 | 40 | 120 | 
13 | 1300 | CCCCCc1ccc(C(=O)Nc2ccccc2C(=O)NCCN2CCc3cc(OC)c(OC)cc3C2)cc1 [compound 9395, 2-(4-Pentyl-benzoylamino)-N-[2-(6,7-dimethoxy-3,4-dihydro-1H-isoquinolin-2-yl)-ethyl]-benzamide] | 9000 | 150 |  | 21 | 
14 | 690 | COc1cc2c(cc1OC)CN(CCNC(=O)c1ccccc1NC(=O)c1ccc(Oc3ccccc3)cc1)CC2 [compound 9426, 2-(4-Phenoxy-benzoylamino)-N-[2-(6,7-dimethoxy-3,4-dihydro-1H-isoquinolin-2-yl)-ethyl]-benzamide] | 7000 | 60 |  | 65 | 
15 | 530 | COc1cc2c(cc1OC)CN(CCNC(=O)c1ccccc1NC(=O)c1ccc(C(=O)c3ccccc3)cc1)CC2 [compound 9427, 2-(4-Benzoyl-benzoylamino)-N-[2-(6,7-dimethoxy-3,4-dihydro-1H-isoquinolin-2-yl)-ethyl]-benzamide] | 10000 |  | 14 | 32 | 
16 | 1000 | COc1cc2c(cc1OC)CN(CCNC(=O)c1ccccc1NC(=O)c1ccc(Cc3ccccc3)cc1)CC2 [compound 9442, 2-(4-Benzyl-benzoylamino)-N-[2-(6,7-dimethoxy-3,4-dihydro-1H-isoquinolin-2-yl)-ethyl]-benzamide] | 7200 | 50 | 27 | 67 | 
17 | 300 | COc1cc2c(cc1OC)CN(CCc1ccc(NC(=O)c3ccccc3NC(=O)c3ccccc3)cc1)CC2 [compound 9456, 2-Benzoylamino-N-{4-[2-(6,7-dimethoxy-3,4-dihydro-1H-isoquinolin-2-yl)-ethyl]-phenyl}-benzamide] | 5000 |  |  |  | 112
18 | 650 | COc1cc2c(cc1OC)CN(CCNC(=O)c1ccccc1NC(=O)c1ccc(OC3CCCCC3)cc1)CC2 [compound 9459, 2-(4-Cyclohexyloxy-benzoylamino)-N-[2-(6,7-dimethoxy-3,4-dihydro-1H-isoquinolin-2-yl)-ethyl]-benzamide] | 8500 | 90 | 45 | 112 | 
19 | 1000 | COc1cc2c(cc1OC)CN(CCNC(=O)c1ccccc1NC(=O)c1ccc(OCc3ccccc3)cc1)CC2 [compound 9460, 2-(4-Benzyloxy-benzoylamino)-N-[2-(6,7-dimethoxy-3,4-dihydro-1H-isoquinolin-2-yl)-ethyl]-benzamide] | 7500 | 180 | 18 | 36 | 
20 | 1800 | COc1cc2c(cc1OC)CN(CCc1ccc(NC(=O)c3ccccc3NC(=O)c3ccc(C4CCCCC4)cc3)cc1)CC2 [compound 9461, 2-(4-Cyclohexyl-benzoylamino)-N-{4-[2-(6,7-dimethoxy-3,4-dihydro-1H-isoquinolin-2-yl)-ethyl]-phenyl}-benzamide] | 7500 | 300 | 13 | 30 | 
21 | 1400 | COc1cc2c(cc1OC)CN(CCCNC(=O)c1ccccc1NC(=O)c1ccc(C3CCCCC3)cc1)CC2 [compound 9466] | 6000 | 50 | 30 | 60 | 
22 | 800 | COc1cc2c(cc1OC)CN(CCc1ccc(NC(=O)c3ccccc3NC(=O)c3ccc4ccccc4n3)cc1)CC2 [compound 9545, Quinoline-2-carboxylic acid (2-{4.-[2-(6,7-dimethoxy-3,4-dihydro-1H-isoquinolin-2-yl)-ethyl]-phenylcarbamoyl}-phenyl)-amide] | 1700 |  |  |  | 
23 | 4300 | COc1cc2c(cc1OC)CN(CCc1ccc(NC(=O)c3ccccc3NC(=O)c3cccc(O)c3)cc1)CC2 [compound 9549, 2-(3-Hydroxy-benzoylamino)-N-{4-[2-(6,7-dimethoxy-3,4-dihydro-1H-isoquinolin-2-yl)-ethyl]-phenyl}-benzanlide] | 5600 | 520 |  |  | 
24 | 930 | CCC(=O)c1cnc(C(=O)Nc2ccccc2C(=O)Nc2ccc(CCN3CCc4cc(OC)c(OC)cc4C3)cc2)cn1 [compound 9569, 5-Propionyl-pyrazine-2-carboxylic acid (2-{4-[2-(6,7-dimethoxy-3,4-dihydro-1H-isoquinolin-2-yl)-ethyl]-phenylcarbamoyl}-phenyl)-amide] | 190 | 8 |  |  | 
